Results as given in patent US20070275382A1, “Biomarkers for the Efficacy of Somatostatin Analogue Treatment” (priority 2003, published 2007).
*1 amine or outer side, *2 acyl side, *3 side chain or, on linkers, in order; H or OH if unused. Where a SMILES comes first, the peptide text is derived from it. Side-chain parts run from the residue outwards. [ ]: non-standard residue; d: D form. The star is where a group is joined. Ethylenediamine = C(CN[*:2])N[*:1]; Hyp = O=C(O)[CH]1C[CH](O)CN1; Phg = N[CH](C(=O)O)c1ccccc1; CO = O=C([*:1])[*:2]; Bn = c1ccc(C*)cc1

Test system: Kidney
Assay: Microarray gene expression profiling (HG-U95A), kidney
Format: in vivo, cynomolgus monkeys
Protocol: Origin of tissue and processing. Male and female cynomolgus monkeys received subcutaneously pasireotide (100 μg/animal/day) or the vehicle for 14 days. On day 15, all animals were sacrificed and tissues for RNA extraction were immediately snap-frozen and kept at −80° C. until processing.
RNA expression profiling was conducted by means of the HG-U95A gene expression probe array (Affymetrix; Santa Clara, Calif. USA), containing more than 12,600 probe sets interrogating primarily full-length human genes and also some control probe sets. The experiment was conducted according to the recommendations of the manufacturer. Briefly, total RNA was obtained by acid guanidinium thiocyanate-phenol-chloroform extraction (Trizol®, Invitrogen Life Technologies, San Diego, Calif. USA) from each frozen tissue section. The total RNA was then purified on an affinity resin (Rneasy®, Qiagen) and quantified. Double stranded cDNA was synthesized with a starting amount of approximately 5 μg full-length total RNA using the Superscript® Choice System (Invitrogen Life Technologies, Carlsbad, Calif. USA) in the presence of a T7-(dT)24 DNA oligonucleotide primer. Following synthesis, the cDNA was purified by phenol/chloroform/isoamyl alcohol extraction and ethanol precipitation. The purified cDNA was then transcribed in vitro using the BioArray® High Yield RNA Transcript Labeling Kit (ENZO, Farmingdale, N.Y. USA) in the presence of biotinylated ribonucleotides form biotin labelled cRNA. The labelled cRNA was then purified on an affinity resin (Rneasy®, Qiagen), quantified and fragmented. An amount of approximately 10 μg labelled cRNA was hybridized for 16 hours at 45° C. to an expression probe array. The array was then washed and stained twice with streptavidin-phycoerythrin (Molecular Probes,) using the GeneChip® Fluidics Workstation 400 (Affymetrix, Santa Clara, Calif. USA). The array was then scanned twice using a confocal laser scanner (GeneArray® Scanner, Agilent, Palo Alto, Calif. USA) resulting in one scanned image. This resulting “.dat-file” was processed using the MAS4 program (Affymetrix) into a “.cel-file”. The “.cel file” was captured and loaded into the Affymetrix GeneChip® Laboratory Information Management System (LIMS). The LIMS database is connected to a UNIX Sun Solaris server through a network filing system that allows for the average intensities for all probes cells (CEL file) to be downloaded into an Oracle database (NPGN). Raw data was converted to expression levels using a “target intensity” of 150. The data were evaluated for quality control and loaded in the GeneSpring® software 4.2.4 (Silicon Genetics, Calif. USA) for analysis.
On the human Affymetrix HGU95Av2 chip, probe sets for individual genes contain 20 oligonucleotide pairs, each composed of a “perfect match” 25-mer and a “mismatch” 25-mer differing from the “perfect” match oligonucleotide at a single base. After probe labelling, hybridization, and laser scanning, the expression level was estimated by averaging the differences in signal intensity measured by oligonucleotide pairs of a given probe (AvgDiff value). The fold changes and directions were calculated for selected genes, from the differences of the AvgDiff values between controls and treated.
To identify genes that were impacted by pasireotide, the dataset was initially filtered to exclude in a first wave of analysis, genes whose values were systematically in the lower expression ranges where the experimental noise is high (at least 80 in a number of experiments corresponding to the smallest number of replicas of any experimental point). In a second round of selection a threshold p-value of 0.05 (based on a t-test) identified differences between treated and control based on a two component error model (Global Error Model) and, whenever possible, with a stepdown correction for multi-hypothesis testing (Benjamini and Hochberg false discovery rate). […]

[1] = ↑ increase, treated vs controls
[2] = ↓ decrease, treated vs controls

## NCCCCC1NC(=O)C(Cc2c[nH]c3ccccc23)NC(=O)C(c2ccccc2)NC(=O)C2CC(OC(=O)NCCN)CN2C(=O)C(Cc2ccccc2)NC(=O)C(Cc2ccc(OCc3ccccc3)cc2)NC1=O (stereo not drawn) [Pasireotide, cyclo[4-(NH2—C2H4—NH—CO—O)Pro-Phg-DTrp-Lys-Tyr(4-Bzl)-Phe]] (cyclo(F[Hyp]([CO-Ethylenediamine])[Phg]WKY(Bn)); configuration not given here)
0.1 mg/animal/14day
  IGF-1 expression level, AvgDiff (range): 25 (20 to 39)
  IGFBP2 expression level, AvgDiff (range): 563 (457 to 655)
  IR expression level, AvgDiff (range): 196 (163 to 265)
  SSTR2 expression level, AvgDiff (range): 126 (93 to 158)
  SSTR3 expression level, AvgDiff (range): 82 (33 to 120)
[1]
  Adrenomedullin RNA expression fold change: ↑ x1.5
  Arginine vasopressin (neurophysin II, antidiuretic hormone, diabetes insipidus, neurohypophyseal) RNA expression fold change: ↑ x2
  CDC37 (cell division cycle 37, S. cerevisiae, homolog) RNA expression fold change: homolog) ↑ x1.5
  CSF-1 receptor, formerly McDonough feline sarcoma viral (v-fms) oncogene homolog RNA expression fold change: homolog ↑ x2.5
  Ca++ channel, voltage-dependent, α 1H subunit RNA expression fold change: subunit ↑ x2
  Calcium/calmodulin-dependent protein kinase kinase 2, β RNA expression fold change: ↑ x1.5
  Cdk 5, regulatory subunit 2 (p39) RNA expression fold change: ↑ x1.5
  Cdki 1A (p21, Cip 1) RNA expression fold change: Cip 1) ↑ x5
  Corticotropin releasing hormone receptor type 2 beta isoform RNA expression fold change: ↑ x1.5
  Dopamine receptor D2 RNA expression fold change: ↑ x4.5
  Fas/Apo-1/CD95 RNA expression fold change: ↑ x1.5
  GABA (A) receptor, γ2 precursor RNA expression fold change: precursor ↑ x2
  GFR-bound protein 7 RNA expression fold change: protein 7 ↑ x2
  GFR-bound protein 14 RNA expression fold change: protein 14 ↑ x2
  Growth arrest-specific 6 RNA expression fold change: specific 6 ↑ x1.5
  IGFBP2 RNA expression fold change: IGFBP2 ↑ x1.5
  IL-7 R precursor RNA expression fold change: ↑ x2
  IRF5 RNA expression fold change: IRF5 ↑ x2
  K+ voltage-gated channel, Shaw-related subfamily, member 3 RNA expression fold change: member 3 ↑ x2.5
  LIF (cholinergic differentiation factor) RNA expression fold change: factor) ↑ x2
  Natriuretic peptide receptor A/guanylate cyclase A (atrionatriuretic peptide receptor A) RNA expression fold change: A) ↑ x2
  Opioid receptor, δ1 RNA expression fold change: δ1 ↑ x2.5
  PDGFR, α polypeptide RNA expression fold change: polypeptide ↑ x1.5
  Putative chemokine receptor; GTP-binding protein RNA expression fold change: ↑ x2
  SSTR2 RNA expression fold change: SSTR 2↑ x2
  SSTR 3 RNA expression fold change: SSTR 3↑ x3
  Solute carrier family 9 (Na+/H+ exchanger) isoform 3 regulatory factor 1 RNA expression fold change: ↑ x2
  TGF, β1 RNA expression fold change: TGF, β 1 ↑ x1.5
  THR binding protein RNA expression fold change: protein ↑x1.5
  THR, α (avian erythroblastic leukaemia viral (v-erb-a) oncogene homolog) RNA expression fold change: homolog) ↑x1.5
  TNFR superfamily, member 12 RNA expression fold change: ↑ x2
  VWF precursor RNA expression fold change: precursor ↑ x2
  δ sleep inducing peptide, immunoreactor RNA expression fold change: x2.5
[2]
  Acetylserotonin O-methyl transferase-like RNA expression fold change: ↓ x3
  Angiotensin receptor 1B RNA expression fold change: 1B ↓ x1.5
  Calmodulin 3 (phosphorrylase kinase, δ) RNA expression fold change: ↓ x1.5
  Cdk (CDC2-like) RNA expression fold change: ↓ x2
  Death effecter domain-containing RNA expression fold change: ↓ x3.5
  Glucocorticoid receptor DNA binding factor 1 RNA expression fold change: ↓ x4.5
  Glutamate receptor, metabotropic 2 precursor RNA expression fold change: precursor ↓ x3
  IGF-1 RNA expression fold change: IGF-1 ↓ x2.5
  IGF-2 RNA expression fold change: IGF-2 ↓ x2
  Insulin receptor RNA expression fold change: ↓ x3
  Na+ channel, nonvoltage-gated 1, β (Liddle syndrome) RNA expression fold change: syndrome) ↓ x2
  PG-endoperoxide synthase 1 (prostaglandin G/H synthase and cyclooxygenase) RNA expression fold change: ↓ x3.5
  PI-3-kinase, catalytic, α polypeptide RNA expression fold change: polypeptide ↓ x3
  PP 3 (formerly 2B), catalytic subunit, β isoform (calcineurin A β) RNA expression fold change: A β) ↓ x2
  Solute carrier family 6 (neurotransmitter transporter, creatin), member 8 RNA expression fold change: ↓ x3
  THR-associated protein, 240kδ subunit RNA expression fold change: subunit ↓ x1.5
  TNF, α-induced protein 3 RNA expression fold change: ↓ x1.5
  Vasopressin-activated calcium-mobilizing receptor-1 RNA expression fold change: receptor-1 ↓ x2
